Results reported in ChEMBL document CHEMBL1201862, “PubChem BioAssay data set” (2004).
The source made the active and inactive calls.

Columns and labels:
[1] = target: Potassium channel subfamily K member 3 (Homo sapiens, UniProt O14649); assay: inhibition of human KCNK3 channel flux – CHO cells, FluxOR thallium flux, SAR follow-up (AID 652212); type: functional
[2] = target: Potassium channel subfamily K member 9 (Homo sapiens, UniProt Q9NPC2); assay: KCNK9 flux blockade, concentration-response – cell-based, FluxOR thallium flux, selectivity assay for TASK1 inhibitor project, SAR follow-up (AID 652211); type: functional;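 note: potency is for inhibitors of the channel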
Potassium channel subfamily K member 9, sequence (Q9NPC2 whole entry, the tested form may be a part): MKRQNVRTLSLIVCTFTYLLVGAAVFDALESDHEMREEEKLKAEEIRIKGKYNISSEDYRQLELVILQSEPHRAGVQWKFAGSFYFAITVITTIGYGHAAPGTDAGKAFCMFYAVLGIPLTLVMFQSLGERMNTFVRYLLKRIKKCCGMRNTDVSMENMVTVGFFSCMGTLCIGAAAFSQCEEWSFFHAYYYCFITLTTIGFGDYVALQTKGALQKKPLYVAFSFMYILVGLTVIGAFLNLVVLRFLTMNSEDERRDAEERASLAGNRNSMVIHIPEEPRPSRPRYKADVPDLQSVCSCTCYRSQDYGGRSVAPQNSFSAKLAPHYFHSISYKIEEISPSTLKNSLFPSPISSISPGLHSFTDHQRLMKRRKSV

[3] = target: Potassium channel subfamily K member 3 (Rattus norvegicus, UniProt O54912); assay: SAR analysis for the identification of selective inhibitors of the two-pore domain potassium channel TASK1(KCNK3):Automated Electrophysiology.; type: functional
Potassium channel subfamily K member 3 (Rattus norvegicus, UniProt O54912), sequence (O54912 whole entry, the tested form may be a part): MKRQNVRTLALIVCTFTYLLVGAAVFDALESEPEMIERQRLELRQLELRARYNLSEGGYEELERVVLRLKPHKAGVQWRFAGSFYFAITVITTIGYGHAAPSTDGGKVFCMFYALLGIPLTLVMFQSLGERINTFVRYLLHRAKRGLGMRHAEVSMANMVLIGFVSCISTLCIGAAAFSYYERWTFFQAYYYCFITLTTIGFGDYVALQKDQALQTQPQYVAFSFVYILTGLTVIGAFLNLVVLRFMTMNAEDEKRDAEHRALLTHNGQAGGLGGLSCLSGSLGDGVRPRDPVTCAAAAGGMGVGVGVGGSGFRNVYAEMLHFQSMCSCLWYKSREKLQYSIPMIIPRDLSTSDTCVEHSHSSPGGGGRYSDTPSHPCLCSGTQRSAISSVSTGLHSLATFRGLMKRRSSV

[4] = target: Paired box protein Pax-8 (Homo sapiens, UniProt Q06710); assay: PAX8 transcriptional activity inhibition in RMG-I – RMG-I cells, luciferase, cherry-pick, dose response (AID 687027); type: functional, cell-based;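 note: luciferase reporter driven by Pax8 target thyroperoxidase promoter measured by SteadyGlo luminescence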
Paired box protein Pax-8, sequence (Q06710 whole entry): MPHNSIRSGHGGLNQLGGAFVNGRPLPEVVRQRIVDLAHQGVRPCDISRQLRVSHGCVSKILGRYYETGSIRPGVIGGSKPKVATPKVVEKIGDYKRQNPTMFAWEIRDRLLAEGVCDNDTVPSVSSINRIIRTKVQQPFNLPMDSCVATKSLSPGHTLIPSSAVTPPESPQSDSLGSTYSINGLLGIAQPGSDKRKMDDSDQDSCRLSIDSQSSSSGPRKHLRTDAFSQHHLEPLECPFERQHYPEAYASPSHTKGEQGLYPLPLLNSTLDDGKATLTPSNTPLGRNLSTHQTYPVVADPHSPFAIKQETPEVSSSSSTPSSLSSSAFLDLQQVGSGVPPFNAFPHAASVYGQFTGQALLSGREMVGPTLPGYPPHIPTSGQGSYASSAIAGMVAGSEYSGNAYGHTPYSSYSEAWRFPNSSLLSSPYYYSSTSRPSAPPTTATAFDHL

[5] = A2780 cell killing – plate reader, dry powder samples, cytotoxicity control, dose response (AID 743046); type: functional, cell-based
[6] = OVCAR8 cell viability loss – plate reader, dry powder samples, PAX8 project, dose response (AID 743197); type: functional, cell-based; conditions: OVCAR-8
[7] = inhibition of ADAM10 peptide cleavage – biochemical, FRET peptide substrate, recombinant human ADAM10, selectivity assay for ADAM17 exosite inhibitor project, dose response (AID 743259);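 note: ADAM10 enzyme cleaving a FRET peptide substrate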
[8] = target: Disintegrin and metalloproteinase domain-containing protein 17 (Homo sapiens, UniProt P78536); assay: exosite inhibitors of ADAM17, dose response, biochemical (AID 743260)
Disintegrin and metalloproteinase domain-containing protein 17, sequence (P78536 whole entry, the tested form may be a part): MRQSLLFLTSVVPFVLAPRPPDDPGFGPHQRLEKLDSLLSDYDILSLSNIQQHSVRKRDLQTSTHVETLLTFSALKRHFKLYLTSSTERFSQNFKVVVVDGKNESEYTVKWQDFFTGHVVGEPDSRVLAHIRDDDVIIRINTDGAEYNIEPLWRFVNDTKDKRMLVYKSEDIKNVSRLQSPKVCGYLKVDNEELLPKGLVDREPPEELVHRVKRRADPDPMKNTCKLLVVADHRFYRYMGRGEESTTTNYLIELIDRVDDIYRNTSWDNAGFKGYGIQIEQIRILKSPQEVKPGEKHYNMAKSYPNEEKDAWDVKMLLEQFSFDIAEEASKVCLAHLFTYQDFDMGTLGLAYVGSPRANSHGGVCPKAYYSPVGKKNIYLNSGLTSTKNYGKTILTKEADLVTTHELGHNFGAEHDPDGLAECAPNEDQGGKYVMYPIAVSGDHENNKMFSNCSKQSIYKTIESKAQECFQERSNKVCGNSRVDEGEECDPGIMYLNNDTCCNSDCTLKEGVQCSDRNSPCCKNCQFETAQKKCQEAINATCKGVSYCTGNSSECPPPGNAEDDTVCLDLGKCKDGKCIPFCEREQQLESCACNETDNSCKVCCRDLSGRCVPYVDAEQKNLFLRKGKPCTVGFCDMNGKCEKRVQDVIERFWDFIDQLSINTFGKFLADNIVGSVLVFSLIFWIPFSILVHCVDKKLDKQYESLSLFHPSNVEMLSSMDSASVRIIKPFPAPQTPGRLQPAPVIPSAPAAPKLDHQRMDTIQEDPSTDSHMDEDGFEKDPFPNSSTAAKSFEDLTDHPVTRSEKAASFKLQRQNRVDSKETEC

[9] = Late stage assay provider results from the probe development effort to identify selective inhibitors of heat shock protein 90 (HSP90): Absorbance-based cell proliferation assay in MCF7 cells.; type: functional
[10] = Late stage assay provider results from the probe development effort to identify selective inhibitors of heat shock protein 90 (HSP90): Absorbance-based cell proliferation assay in SKBR3 cells.; type: functional; conditions: SK-BR-3
[11] = target: fMet-Leu-Phe receptor (Homo sapiens, UniProt P21462); assay: formyl peptide receptor binders – dose response (AID 519); type: functional
fMet-Leu-Phe receptor, sequence (P21462 whole entry): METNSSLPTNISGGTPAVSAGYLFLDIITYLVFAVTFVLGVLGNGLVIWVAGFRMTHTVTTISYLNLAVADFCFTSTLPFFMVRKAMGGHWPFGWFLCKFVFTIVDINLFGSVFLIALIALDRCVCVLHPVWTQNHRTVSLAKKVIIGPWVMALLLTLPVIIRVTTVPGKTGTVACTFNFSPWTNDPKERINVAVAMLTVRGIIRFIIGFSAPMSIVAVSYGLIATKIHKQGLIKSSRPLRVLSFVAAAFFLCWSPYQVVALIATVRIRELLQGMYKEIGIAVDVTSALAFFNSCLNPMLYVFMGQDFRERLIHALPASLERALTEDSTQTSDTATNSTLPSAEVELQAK

[12] = viability of BHK-21 cells – cell-based, secondary screen, cytotoxicity control for flavivirus guanylyltransferase probe project (AID 624078); type: functional
[13] = TB: CFU replicating Measured in Microorganism System Using Imaging - 7108-05_Inhibitor_Dose_DryPowder_Activity_Set2.; type: functional
[14] = miR-122 quantity in Huh7 after inhibitor exposure – cell-based, RT-qPCR, dry powder, orthogonal assay for miR-122 inhibitor project, dose response (AID 687041); type: functional
[15] = cells
[16] = viability of uninfected HEp-2 cells – cell-based, HTS, cytotoxicity control for RSV inhibitor project, dose response (AID 2410); type: functional; conditions: human respiratory syncytial virus
[17] = target: 1-phosphatidylinositol 4,5-bisphosphate phosphodiesterase beta-3 (Homo sapiens, UniProt Q01970); assay: Fluorescence-based biochemical high throughput dose response assay to identify inhibitors of phospholipase C isozymes (PLC-B3).
1-phosphatidylinositol 4,5-bisphosphate phosphodiesterase beta-3, sequence (Q01970 whole entry): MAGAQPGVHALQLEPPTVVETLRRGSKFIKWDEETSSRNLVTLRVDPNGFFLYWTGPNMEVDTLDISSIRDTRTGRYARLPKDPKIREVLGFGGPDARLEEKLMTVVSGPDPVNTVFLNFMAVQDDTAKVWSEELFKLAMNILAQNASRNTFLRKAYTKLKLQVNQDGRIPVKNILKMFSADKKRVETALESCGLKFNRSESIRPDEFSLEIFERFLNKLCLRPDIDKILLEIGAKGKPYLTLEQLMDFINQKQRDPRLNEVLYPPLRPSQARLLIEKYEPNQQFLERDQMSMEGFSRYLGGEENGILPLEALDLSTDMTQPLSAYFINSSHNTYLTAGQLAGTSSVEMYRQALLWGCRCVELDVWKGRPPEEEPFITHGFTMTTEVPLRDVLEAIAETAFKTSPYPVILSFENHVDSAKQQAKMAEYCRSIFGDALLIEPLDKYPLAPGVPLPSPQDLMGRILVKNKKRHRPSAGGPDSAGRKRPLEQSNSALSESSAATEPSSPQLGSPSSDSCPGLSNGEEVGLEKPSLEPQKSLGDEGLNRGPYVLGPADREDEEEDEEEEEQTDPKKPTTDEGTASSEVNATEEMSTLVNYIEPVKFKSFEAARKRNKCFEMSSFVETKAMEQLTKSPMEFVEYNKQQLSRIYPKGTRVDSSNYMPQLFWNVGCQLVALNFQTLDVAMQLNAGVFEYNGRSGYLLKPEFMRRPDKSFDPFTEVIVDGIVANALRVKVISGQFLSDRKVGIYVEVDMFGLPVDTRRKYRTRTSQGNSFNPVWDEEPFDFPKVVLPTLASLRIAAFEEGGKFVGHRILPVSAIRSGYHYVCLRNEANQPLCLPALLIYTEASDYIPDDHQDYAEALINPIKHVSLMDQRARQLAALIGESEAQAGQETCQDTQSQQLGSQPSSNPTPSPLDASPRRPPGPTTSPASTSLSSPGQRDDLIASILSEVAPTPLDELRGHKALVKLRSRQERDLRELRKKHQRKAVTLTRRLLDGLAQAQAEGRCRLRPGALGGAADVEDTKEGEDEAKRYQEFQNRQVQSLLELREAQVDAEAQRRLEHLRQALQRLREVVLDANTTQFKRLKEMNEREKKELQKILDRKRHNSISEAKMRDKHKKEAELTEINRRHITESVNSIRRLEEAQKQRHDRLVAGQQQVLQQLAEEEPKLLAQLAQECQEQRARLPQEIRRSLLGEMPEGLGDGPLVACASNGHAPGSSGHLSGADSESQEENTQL

[18] = target: 1-phosphatidylinositol 4,5-bisphosphate phosphodiesterase gamma-1 (Homo sapiens, UniProt P19174); assay: Counterscreen for inhibitors of phospholipase C isozymes (PLC-B3): Fluorescence-based biochemical high throughput dose response assay to identify inhibitors of phospholipase C isozymes (PLC-gamma1).
1-phosphatidylinositol 4,5-bisphosphate phosphodiesterase gamma-1, sequence (P19174 whole entry): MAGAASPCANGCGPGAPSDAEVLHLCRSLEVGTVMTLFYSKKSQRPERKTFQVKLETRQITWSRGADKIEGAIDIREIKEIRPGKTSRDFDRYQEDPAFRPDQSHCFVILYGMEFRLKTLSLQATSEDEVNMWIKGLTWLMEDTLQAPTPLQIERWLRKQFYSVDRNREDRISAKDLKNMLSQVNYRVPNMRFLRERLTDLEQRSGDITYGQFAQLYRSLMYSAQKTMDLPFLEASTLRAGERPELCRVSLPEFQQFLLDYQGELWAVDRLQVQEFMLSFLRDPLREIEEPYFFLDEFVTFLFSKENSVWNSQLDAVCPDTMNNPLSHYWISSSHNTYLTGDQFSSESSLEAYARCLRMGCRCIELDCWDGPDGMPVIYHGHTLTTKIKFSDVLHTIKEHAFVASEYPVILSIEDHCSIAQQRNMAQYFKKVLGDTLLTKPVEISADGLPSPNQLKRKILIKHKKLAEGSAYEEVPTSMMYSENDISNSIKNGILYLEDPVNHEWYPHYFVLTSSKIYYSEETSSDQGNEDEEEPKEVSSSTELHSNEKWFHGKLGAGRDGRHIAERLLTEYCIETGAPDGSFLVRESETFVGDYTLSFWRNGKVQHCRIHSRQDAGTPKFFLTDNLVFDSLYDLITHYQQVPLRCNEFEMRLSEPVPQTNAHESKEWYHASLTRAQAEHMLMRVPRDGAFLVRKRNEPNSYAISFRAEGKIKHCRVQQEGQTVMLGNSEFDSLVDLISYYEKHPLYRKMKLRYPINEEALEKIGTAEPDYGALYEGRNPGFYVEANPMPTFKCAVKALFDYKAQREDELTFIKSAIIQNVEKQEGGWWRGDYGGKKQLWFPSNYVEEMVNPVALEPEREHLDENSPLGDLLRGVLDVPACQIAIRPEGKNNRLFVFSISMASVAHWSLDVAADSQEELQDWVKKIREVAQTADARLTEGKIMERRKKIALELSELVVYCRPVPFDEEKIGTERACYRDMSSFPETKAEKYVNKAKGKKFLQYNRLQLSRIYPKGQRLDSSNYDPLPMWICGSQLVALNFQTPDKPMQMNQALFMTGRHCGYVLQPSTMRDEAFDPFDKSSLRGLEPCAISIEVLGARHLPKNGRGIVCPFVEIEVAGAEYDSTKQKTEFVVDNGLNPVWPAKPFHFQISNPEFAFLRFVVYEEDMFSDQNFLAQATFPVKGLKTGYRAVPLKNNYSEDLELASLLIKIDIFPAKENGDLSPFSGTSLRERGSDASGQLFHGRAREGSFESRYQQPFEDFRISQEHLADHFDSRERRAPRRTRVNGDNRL

[19] = Late stage results for the probe development effort to identify inhibitors of Plasmodium falciparum gametocytes: Luminescence-based cell-based high throughput dose response assay to identify inhibitors of viability of late stage Plasmodium falciparum gametocytes.; type: functional
[20] = IC50 of Artemis nuclease activity blockers – biochemical, fluorescence intensity, dose response (AID 720701); type: functional;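 note: Artemis endonuclease enzyme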
[21] = M. tuberculosis H37Rv growth inhibitors, H37Rv strain (AID 1626); type: functional
[22] = test system: H9c2; assay: cells; type: functional, cell-based; conditions: Rattus norvegicus, H9c2, Myocardium;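 note: confirmatory concentration-response retest of ultra-high-throughput screening hits for modulation of myocardial damage; cell death induced by hydrogen peroxide oxidative stress; compound pretreatment for 60 min then peroxide exposure for 2 h; potency is for protecting the cells against peroxide damage rather than for killing them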

For `CCOc1ccccc1NC(=O)c1cccc(NC(=O)C2CCCC2)c1`, the IC50 [1] was 54 nM (active), the IC50 [2] was 1.84 µM (active) and the IC50 [3] was 123 nM (active).
With `C[C@@H]1CN([C@@H](C)CO)C(=O)c2cc(NC(=O)Nc3ccc(C(F)(F)F)cc3)ccc2O[C@@H](C)CCCCO[C@@H]1CN(C)Cc1ccc2c(c1)OCO2` the AC50 [4] was 5.64 µM (active), the AC50 [5] was 56.1 µM (active) and the AC50 [6] was 57.3 µM (active).
With `COc1ccc(NC(=O)Nc2ccc3c(c2)C(=O)N([C@@H](C)CO)C[C@@H](C)[C@@H](CN(C)S(=O)(=O)c2cccs2)O3)cc1` the IC50 [7] was > 7.72 µM (active) and the IC50 [8] was > 69.5 µM (inactive).
With `O=C1OC(=O)/C(=C\Nc2ccccc2F)C=C1Br` the IC50 [9] was 13.6 µM (inactive) and the IC50 [10] was 13.3 µM (inactive).
With `CCOc1cccc(C(=O)C2=C(O)C(=O)N(Cc3cccnc3)C2c2ccco2)c1` (configuration not stated) the Ki [11] was > 66.7 µM (inactive).
With `O=S(=O)(Nc1cc(SCc2ccccc2)c(O)c2ccccc12)c1ccc(Cl)cc1` the CC50 [12] was 15 µM (active).
In the case of `Cn1c(-n2c(=O)nc3n(C)c4ccccc4n3c2=O)nc2ccccc21`, the AbsAC90 [13] is reported as 268.91 µM.
In the case of `CC1CCCCN1C(=O)c1cc2nc(-c3ccccc3)cc(-c3ccccc3)n2n1` (configuration not stated), the AC50 [14] is reported as 1.13 µM (active), the IC50 [15] is reported as 19.3 µM (active) and the CC50 [16] is reported as 15.6 µM (active).
With `Nc1ncnc2c1ncn2[C@@H]1O[C@H](COP(=O)(O)CP(=O)(O)O)[C@@H](O)[C@H]1O` [PHOSPHOMETHYLPHOSPHONIC ACID ADENOSYL ESTER] the IC50 [17] was > 122 µM (inactive) and the IC50 [18] was 2.2 µM (active).
In the case of `COc1ccc(-c2nn(-c3ccccc3)cc2C(=O)Nc2nccs2)cc1`, the IC50 [19] is reported as > 74.4 µM (inactive), the IC50 [20] is reported as 9.49 µM (active) and the IC50 [21] is reported as > 100 µM (active). The IC50 [22] was > 79 µM (inactive).
